Assay results as given in patent publication US20130108653A1, “BIVALENT MOLECULES FOR HIV ENTRY INHIBITION” (priority 2009, published 2013).

Test system: JRCSF (CCR5-tropic)
Test: Luciferase assay / single round infection in TZM-bl cells, JRCSF
Assay type: cell-based, HIV
Details: TZM-bl luciferase indicator cells; FIG. 20
Source text: FIGS. 10-14. Inhibitory effect of the bivalent molecules of the present invention on HIV spreading. The experiment is based on the activation of the luciferase gene upon infection of TZM-bl cells. X-axis depict 3 different dilutions of a virus stock (HXB2 (CRCX4-trop, virus 89.6 (Dual-trop) or JRCSF (CCR5-trop)) with unknown titer (1×, 5× and 25×). Y-axis depicts the amount of luminescence. Lower luminescence corresponds to greater inhibitory effect of the bivalent molecules of the present invention. (See also Example 4 elsewhere herein).
JRCSF is incubated in the presence of mol 500 in a concentration of 0.2 micrograms/ml and 0.1 micrograms/ml. JRCSF incubated without mol 500 is shown as a control. […]
The experiment is based on the activation of the luciferase gene upon infection of TZM-bl cells with 3 different virus strains (HXB2 (CRCX4-tropic), virus 89.6 (Dual-tropic) or JRCSF (CCR5-tropic)). The more luminescence measured, the greater activation of the luciferase gene has occurred, and the more inefficient the inhibition of infection has been by the molecule of the present invention […]
90 μl of Luciferin (britelite plus Perkin Elmer cat no: 6016761) is added to each well in order to start the chemo-luminescence reaction.
150 μl of the liquid is removed from each well and the luminescence is measured in a FLUO star Omega (BMG LABYECH Gmbh). […]

Substance: enfuvirtide
- neutralization of JR-CSF, single round infection, in words: very minor effects
